Laboratory results reported in patent publication EP4659758A1, “ANTI-AGING COMPOSITION” (Mitsubishi Corporation Life Sciences Limited, priority 2023, dated 2024).

How the values were obtained:
Format in all cases: cell-based
B16 mouse melanoma cells = assay: Melanin production suppression test in cultured cells (absorbance at 405 nm); conditions: α-MSH 200 nM induction; for melanin production amount: 0.02 mM or 0.05 mM, relative to reference sample (induction only) = 100, p < 0.01
Method: B16 mouse melanoma cells were seeded in a 6 well plate (2.0 × 10^4 cells/well), and cultured for 24 hours in D-MEM medium to which 5% fetal bovine serum was added with respect to the medium (5%CO2, 37°C). […] The obtained pellets were washed twice with PBS (-), 150 µL of a 1 M sodium hydroxide solution was then added, and the mixture was treated at 100°C for 10 minutes to dissolve the pellets, thereby preparing a reference sample. […] One hundred µL of a sample of each test section was added to a 96 well plate, and the absorbance at 405 nm was measured with a microplate reader (n = 3). […] The significant difference test was performed on the measured value of the reference sample by the Dunnett method (*p < 0.05, **p < 0.01.).

Normal human fibroblasts [1] = assay: Suppression of decrease in proliferation capability after hydrogen peroxide aging induction (MTT assay); conditions: 50 µM or 100 µM, 0.5 mM hydrogen peroxide aging induction; relative to untreated non-induced = 100; compared with only aging induction and with 100 µM reduced glutathione, p < 0.005
Method: Normal human fibroblasts were seeded in 96 well plates (3.0 × 10^3 cells/well, N = 3) and precultured for 24 hours (5% CO2, 37°C). As a medium, MEM-α, nucleosides medium (Gibco) containing fetal bovine serum (10% of serum-free medium was externally added) was used. Thereafter, the wells were washed once with PBS (-), then replaced with MEM-α, nucleoside medium containing fetal bovine serum (5% of serum-free medium was externally added) dissolved so that the final concentration of Sample 1 or Sample 2 was 50 µM or 100 µM, and further incubated for 30 minutes. Thereafter, fibroblasts were treated with a medium adjusted so that the final concentration of hydrogen peroxide was 0.5 mM to induce aging. Thereafter, an MTT assay was performed according to a conventional method, and the survival rate of fibroblasts was calculated as a relative value when the survival rate of cells in the test section in which neither treatment nor aging induction was performed was taken as 100.
For comparison, a test section in which only aging induction was performed and a test section in which reduced glutathione was 100 µM was set instead of Sample 1. […]

Normal human fibroblasts [2] = assay: Suppression of decrease in hyaluronic acid production capability due to aging induction (ELISA); conditions: 50 µM or 100 µM, 0.5 mM hydrogen peroxide, 24 hours; for hyaluronic acid production amount: relative value, compared with only aging induction
Method: Normal human fibroblasts were seeded in 24 well plates (8.0 × 10^4 cells/well, N = 3) and precultured for 24 hours (5% CO2, 37°C). As a medium, MEM-α, nucleosides medium (Gibco) containing fetal bovine serum (10% of serum-free medium was externally added) was used. Thereafter, the wells were washed once with PBS (-), then replaced with MEM-α, nucleoside medium containing fetal bovine serum (5% of serum-free medium was externally added) dissolved so that the final concentration of Sample 1 or Sample 2 was 50 µM or 100 µM, and further incubated for 30 minutes. Thereafter, fibroblasts were treated with a medium adjusted so that the final concentration of hydrogen peroxide was 0.5 mM to induce aging. Thereafter, the culture medium was changed to MEM-α, nucleoside medium containing fetal bovine serum (5% of serum-free culture medium was externally added) and incubated for 24 hours, and then the amount of hyaluronic acid was quantified by ELISA using a hyaluronic acid quantification kit (Cosmo Bio Inc.).
The hyaluronic acid production amount in each test section was shown as a relative value when the hyaluronic acid production amount in each sample and the test section in which aging induction was not performed was taken as 100. Regarding the hyaluronic acid production amount, a significant difference test (t-test, two-tailed) between the two groups of the test section for Sample 1 and the test section for which only the aging induction was performed respectively, and a significant difference test between the test section for Sample 2 and the test section for which only the aging induction was performed were each performed, and "*(p < 0.05)" was marked for those in which a significant difference was recognized.

tyrosinase = molecular target: T1, tyrosinase (Mus musculus, UniProt P11344); assay: Tyrosinase activity suppression test (L-DOPA, absorbance at 490 nm, cell extract); conditions: 0.05 mM or 0.1 mM at melanin induction
T1 construct: a protein extract containing tyrosinase derived from B16 mouse melanoma cells; endogenous in cells; host or cells: B16 mouse melanoma cells, alpha-MSH induced; RIPA buffer lysate supernatant
T1 sequence (P11344 19-533): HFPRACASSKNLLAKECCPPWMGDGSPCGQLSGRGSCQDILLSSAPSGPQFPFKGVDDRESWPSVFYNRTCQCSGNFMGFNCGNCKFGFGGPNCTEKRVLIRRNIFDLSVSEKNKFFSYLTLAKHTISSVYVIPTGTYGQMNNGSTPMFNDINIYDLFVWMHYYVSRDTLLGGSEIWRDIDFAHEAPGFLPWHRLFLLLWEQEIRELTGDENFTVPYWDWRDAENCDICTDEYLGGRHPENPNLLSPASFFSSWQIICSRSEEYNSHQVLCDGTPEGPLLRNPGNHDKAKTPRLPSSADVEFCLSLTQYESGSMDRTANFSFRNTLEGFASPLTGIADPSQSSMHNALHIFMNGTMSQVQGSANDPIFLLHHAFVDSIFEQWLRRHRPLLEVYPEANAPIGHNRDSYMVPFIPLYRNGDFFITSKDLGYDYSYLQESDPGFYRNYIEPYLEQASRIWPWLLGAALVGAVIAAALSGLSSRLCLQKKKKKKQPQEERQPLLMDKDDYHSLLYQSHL
Text: In addition, the tyrosinase activity in the present invention can be confirmed by adding L-DOPA having a known concentration to a protein extract containing tyrosinase derived from B16 mouse melanoma cells in which melanin is induced by a melanin inducer such as α-MSH (melanocyte stimulating hormone) to react, measuring the absorbance at 490 nm, and correcting the absorbance with the protein concentration in the protein extract. The tyrosinase activity inhibitory effect can be known by comparing the value of the absorbance at 490 nm corrected by the protein concentration measured by adding the test substance at the time of melanin induction and the same operation with the value of the test section to which the test substance is not added.
B16 mouse melanoma cells were seeded in a 6 well plate (2.0 × 10^4 cells/well), and cultured for 24 hours in D-MEM medium to which 5% fetal bovine serum was added with respect to the medium (5%CO2, 37°C). […] The protein concentration of the obtained sample was measured by the BCA method.
The same operation was performed except that melanin induction was not performed, and a reference sample was obtained. […] Fifty µL of a sample of each test section was placed in a 96 well plate (n=3), 50 µL of 0.8 mg/mL L-DOPA was added, the mixture was reacted at 37°C for 1 hour, and then the absorbance at 490 nm was measured with a microplate reader. […]

[3] = test system: Normal human epidermal keratinocytes; assay: Suppression of decrease in hyaluronic acid production capability due to aging induction (ELISA); conditions: 50 µM, 0.5 mM hydrogen peroxide, 24 hours
Method: Normal human epidermal keratinocytes were seeded in 24 well plates (1.0 × 10^5 cells/well, N = 3) and precultured for 24 hours (5%CO2, 37°C). As a medium, a commercially available keratinocyte growth medium (PromoCell) was used. Thereafter, the wells were washed once with PBS (-), then replaced with a keratinocyte growth medium dissolved so that the final concentration of Sample 1 was 50 µM, and further incubated for 30 minutes. Thereafter, normal human epidermal keratinocytes were treated with a medium adjusted to have a final concentration of hydrogen peroxide of 0.5 mM to induce aging. Thereafter, the medium was replaced with a new keratinocyte growth medium and incubated for 24 hours, and then the amount of hyaluronic acid was quantified by an ELISA method using a hyaluronic acid quantification kit (Cosmo Bio). For comparison, a test section not treated with oxidized glutathione trisulfide was provided.
The hyaluronic acid production amount in each of the test sections was shown as a relative value when the hyaluronic acid production amount in the test section in which neither oxidized glutathione trisulfide treatment nor aging induction was performed was taken as 100. […]

[4] = test system: Normal human epidermal keratinocytes; assay: Suppression of decrease in proliferation capability after hydrogen peroxide aging induction (MTT assay); conditions: 50 µM or 100 µM, 0.5 mM hydrogen peroxide aging induction; relative to untreated non-induced = 100; compared with only aging induction
Method: Normal human epidermal keratinocytes were seeded in 96 well plates (1.0 × 10^4 cells/well, N = 3) and precultured for 24 hours (5%CO2, 37°C). As a medium, a commercially available keratinocyte growth medium (PromoCell) was used. Thereafter, the wells were washed once with PBS (-), then replaced with a keratinocyte growth medium dissolved so that the final concentration of Sample 1 was 50 µM or 100 µM, and further incubated for 30 minutes. Thereafter, normal human epidermal keratinocytes were treated with a medium adjusted to have a final concentration of hydrogen peroxide of 0.5 mM to induce aging. Thereafter, an MTT assay was performed according to a conventional method, and the survival rate of normal human epidermal keratinocytes was calculated as a relative value when the survival rate of cells in a test section in which neither the treatment with oxidized glutathione trisulfide nor the aging induction was performed was taken as 100.
For comparison, a test section in which only aging induction was performed without treatment with oxidized glutathione trisulfide was set.
Regarding the survival rate, a significant difference test (t-test, two-tailed) between the two groups of the test section of Sample 1 and the test section in which only aging induction was performed was performed respectively.

Row | Compound | melanin production amount (B16 mouse melanoma cells) | survival rate of fibroblasts (cell proliferation rate) (Normal human fibroblasts [1]) | hyaluronic acid production amount (Normal human fibroblasts [2]) | melanin production suppressing effect (B16 mouse melanoma cells; 3 mM, compared with 0.02 mM Sample 1) | tyrosinase activity (tyrosinase; compared with reference sample (no melanin induction) = 100) | tyrosinase activity (tyrosinase; compared with test section with only melanin induction) | hyaluronic acid production capability ([3]; compared with control group without aging induction, no significant difference) | hyaluronic acid production amount ([3]; relative value, compared with only aging induction) | survival rate of normal human epidermal keratinocytes (cell proliferation rate) [4] | hyaluronic acid production capability (Normal human fibroblasts [2]; compared with test sections without aging induction, no significant difference)
1 | CC(=O)N[C@@H](CSSSC[C@H](NC(C)=O)C(=O)O)C(=O)O [Sample 2, oxidized NAC trisulfide] | significantly low | significant cell proliferation rate | significantly higher than that in the test section of only aging induction |  |  |  |  |  |  | 
2 | N[C@@H](CCC(=O)N[C@@H](CS)C(=O)NCC(=O)O)C(=O)O [reduced glutathione, reference compound] |  |  |  | same melanin production suppressing effect as the 0.02 mM test section of Sample 1 |  |  |  |  |  | 
3 | N[C@@H](CCC(=O)N[C@@H](CSSSC[C@H](NC(=O)CC[C@H](N)C(=O)O)C(=O)NCC(=O)O)C(=O)NCC(=O)O)C(=O)O [Sample 1, oxidized glutathione trisulfide] | significantly low | significant cell proliferation rate | significantly higher than that in the test section of only aging induction |  | same degree of tyrosinase activity as the reference sample | significantly lower than the test section in which only melanin induction was performed | same hyaluronic acid production capability as that of the control group in which aging is not induced | significantly higher than that in the test section of only aging induction | significant cell proliferation rate | same hyaluronic acid production capability as those of the test sections that did not induce aging
